The subject of data set [1] is P. falciparum asexual blood stage parasites (strains NF54, D6, K1, W2, 7G8, TM90C2A, V1/S). Nature of the data set: [3H]-hypoxanthine incorporation growth inhibition assay, asexual blood stage. The format is cell-based, Plasmodium falciparum. As to conditions: Plasmodium falciparum.
For data set [2], the system named is P. falciparum mature gametocytes / male gamete exflagellation. Nature of the data set: P. falciparum exflagellation assay. The format is cell-based, Plasmodium falciparum. As to conditions: for inhibition at 10 µM: Plasmodium falciparum.
Data set [3] deals with P. berghei oocyst formation. The data set can be described thus: Standard membrane feed assay, P. berghei oocysts in A. stephensi. In kind it is in vivo, Plasmodium berghei. As to conditions: for transmission-blocking effect on P. berghei oocysts (words): 10 µM.
Data set [4] has as its system P. yoelii liver stage parasites (liver schizonts). The data set can be described thus: P. yoelii liver stage assay in HepG2 cells (EEF immunofluorescence). As to conditions: for IC50: Plasmodium yoelii. In kind it is cell-based, Plasmodium yoelii.
For another data set, the system named is HepG2 cells. Nature of the data set: Growth retardation of HepG2 cells. As to conditions: for IC50: Homo sapiens, HepG2, read-out: IC50 HepG2.
The mark [5] stands for this setting: 10 µM, 24 h exposure of mature gametocytes.

“Also recorded” adds a separate entry of the source. Read-outs that look alike come from different tables or passages of the source.

One may read the IC50 as the point on the concentration scale where inhibition reaches its midpoint. As to `COc1cc(N[C@H](C)CCCN)c2nccc(C)c2c1Oc1ccc(Cl)c(Cl)c1` [NPC-1161B], the IC50 in data set [1] (strain 7G8) was roughly 50 nM; in data set [1] (strain NF54) it was roughly 500 nM; in data set [4] (HepG2, box linked to liver schizont, read-out: IC50 (liver schizont, Figure 5)), less than 1000 nM; in data set [4] (development of P. yoelii liver schizonts following infection of HepG2 cells, read-out: IC50 Parasite) it was 720 ± 70 nM; with HepG2 cells, 840 ± 460 nM. For the same molecule, the “effect on exflagellation (words)” value in data set [2] (setting [5]) was “inhibited exflagellation totally; also recorded: inhibit exflagellation in vitro; also recorded: inhibited both exflagellation and oocyst production”; in data set [2] (10 µM, 24 h exposure of mature gametocytes, listed as NPC1161-B), “showed potency”. Moreover, the inhibition at 10 µM in data set [2] (read-out: inhibition of exflagellation, 10 µM, 24 h exposure of mature gametocytes) was greater than 70%; in data set [2] (10 μM, box linked to gametocytes/exflagellation, read-out: Inhibition at 10 μM (gametocytes/exflagellation, Figure 5)), greater than 60%; in data set [3] (Plasmodium berghei) it was greater than 90%. Also, in data set [3], the “transmission-blocking effect on P. berghei oocysts (words)” value is on record as “most notable transmission-blocking activity; also recorded: showed potency”. In data set [4] (dose response), the “potency range against liver stages” value is given as “submicromolar range”. Further, in the data set on HepG2 cells (IC50 HepG2 compared to IC50 parasite), the “CI (cytotoxicity index)” value was found to be 1.17.

`CCCCN(CCCC)CCC(O)c1cc2c(Cl)cc(Cl)cc2c2cc(C(F)(F)F)ccc12` (stereo not drawn) [halofantrine]: the IC50 in data set [1] is less than 4 nM; in data set [1] (multi-drug-resistant strains K1, W2 and 7G8), 0.3 nM; in data set [4] (HepG2, development of P. yoelii liver schizonts following infection of HepG2 cells, read-out: IC50 Parasite), 2320 ± 1350 nM; in the data set with HepG2 cells, less than 5660 nM. Moreover, in data set [2] (setting [5]), the “effect on exflagellation (words)” value is recorded as “only moderate or no inhibition of exflagellation”. The “enhancement (stimulation) of exflagellation” value in data set [2] (setting [5]) amounted to 45%. Also, the “transmission-blocking effect on P. berghei oocysts (words)” value in data set [3] was “impaired sporogony”. In the data set on HepG2 cells (human, 48 h), the “CI (cytotoxicity index)” value was less than 2.44.

Values taken from article PMC3283556, “The Activities of Current Antimalarial Drugs on the Life Cycle Stages of Plasmodium: A Comparative Study with Human and Rodent Parasites” (PLoS Medicine, 2012).
